The record followed here is patent publication US10092584B2 (Achillion Pharmaceuticals, Inc., priority 2015, dated 2018).

pIC50: −log10 of the molar value. Structures can show the parent of a compound that is named as a salt.

The target in the first assay is T1, Human Factor D (Homo sapiens, UniProt P00746).
T1 construct: purified from human serum; purchased Complement Technology, Inc; host or cells: human serum
T1 sequence (P00746 26-253): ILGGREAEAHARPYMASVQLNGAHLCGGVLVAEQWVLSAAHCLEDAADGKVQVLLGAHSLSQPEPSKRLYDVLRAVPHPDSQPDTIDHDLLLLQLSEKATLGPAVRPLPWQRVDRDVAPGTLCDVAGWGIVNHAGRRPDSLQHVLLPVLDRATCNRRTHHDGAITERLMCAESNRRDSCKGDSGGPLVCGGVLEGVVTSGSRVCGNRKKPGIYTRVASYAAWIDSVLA
Briefly: Human Factor D assay (Example 8). It counts as biochemical.
Conditions: not given
In short, it runs like this:
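IC50 values derive from nonlinear regression of Factor D reaction rates against compound concentration. The enzyme, purified from human serum, is used at 80 nM final with a 5 min room-temperature compound preincubation in 50 mM Tris, 1M NaCl, pH 7.5, before 100 μM Z-L-Lys-SBzl plus 100 μM DTNB are added.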
Turning to `CC(=O)c1cn(CC(=O)N2C[C@H](F)C[C@H]2C(=O)Nc2cccc(-c3ccccc3Cl)c2F)c2c(C3CC3)cccc12` [Compound 115, (2S,4R)-1-(2-(3-acetyl-7-cyclopropyl-1H-indol-1-yl)acetyl)-N-(2′-chloro-2-fluorobiphenyl-3-yl)-4-fluoropyrrolidine-2-carboxamide], the pIC50 is greater than 6.00.

`CC(=O)c1ccc(Cl)c(-c2cccc(NC(=O)[C@@H]3C[C@@H](F)CN3C(=O)Cn3nc(C(N)=O)c4ccccc43)c2F)c1` [Compound 117, 1-(2-((2S,4R)-2-((5′-Acetyl-2′-chloro-2-fluoro-[1,1′-biphenyl]-3-yl)carbamoyl)-4-fluoropyrrolidin-1-yl)-2-oxoethyl)-1H-indazole-3-carboxamide]: the pIC50 is greater than 6.00.

`CC(=O)c1cn(CC(=O)N2C[C@H](F)C[C@H]2C(=O)Nc2cccc(Br)n2)c2ccc(C3(NC(=O)c4ncccn4)CC3)cc12` [Compound 119, N-(1-(3-acetyl-1-(2-((2S,4R)-2-(6-bromopyridin-2-ylcarbamoyl)-4-fluoropyrrolidin-1-yl)-2-oxoethyl)-1H-indol-5-yl)cyclopropyl) pyrimidine-2-carboxamide]: the pIC50 was greater than 6.00. For `NC(=O)c1nn(CC(=O)N2C[C@H](F)C[C@H]2C(=O)Nc2cccc(-c3cc(OC(F)(F)F)ccc3Cl)c2F)c2ccccc12` [Compound 120, 1-(2-((2S,4R)-2-(2′-chloro-2-fluoro-5′-(trifluoromethoxy)biphenyl-3-ylcarbamoyl)-4-fluoropyrrolidin-1-yl)-2-oxoethyl)-1H-indazole-3-carboxamide], the pIC50 was greater than 6.00.

`NC(=O)c1cn(CC(=O)N2C[C@H](F)C[C@H]2c2nc3cc(-c4ccccc4Cl)ccc3[nH]2)c2ccccc12` [Compound 121, 1-(2-((2S,4R)-2-(5-(2-chlorophenyl)-1H-benzo[d]imidazol-2-yl)-4-fluoropyrrolidin-1-yl)-2-oxoethyl)-1H-indole-3-carboxamide] showed a pIC50 of less than 5.00. `NC(=O)c1nn(CC(=O)N2C[C@H](F)C[C@H]2C(=O)Nc2cccc(-c3ccc4[nH]cnc4c3Cl)c2F)c2ccccc12` [Compound 122, 1-(2-((2S,4R)-2-(3-(4-chloro-1H-benzo[d]imidazol-5-yl)-2-fluorophenylcarbamoyl)-4-fluoropyrrolidin-1-yl)-2-oxoethyl)-1H-indazole-3-carboxamide] had a pIC50 greater than 6.00. `CC(=O)c1cn(CC(=O)N2C[C@H](F)C[C@H]2C(=O)Nc2cccc(Br)n2)c2ccc(C3(NC(=O)OC(C)(C)C)CC3)cc12` [Compound 123, tert-butyl 1-(3-acetyl-1-(2-((2S,4R)-2-(6-bromopyridin-2-ylcarbamoyl)-4-fluoropyrrolidin-1-yl)-2-oxoethyl)-1H-indol-5-yl)cyclopropyl-carbamate] had a pIC50 greater than 6.00.

Take `CC(=O)c1cn(CC(=O)N2C[C@H](F)C[C@H]2C(=O)Nc2cccc(-c3ccccc3Cl)c2F)c2c(C#Cc3ncc(F)cn3)cccc12` [Compound 124, (2S,4R)-1-(2-(3-acetyl-7-((5-fluoropyrimidin-2-yl)ethynyl)-1H-indol-1-yl)acetyl)-N-(2′-chloro-2-fluorobiphenyl-3-yl)-4-fluoropyrrolidine-2-carboxamide]: the pIC50 is greater than 6.00.

Still in this assay, the particulars now being: Table 1; Human Factor D 80 nM, substrate Z-L-Lys-SBzl; read-out: IC50.
As to `Cc1cc2c(s1)c(C(N)=O)nn2CC(=O)N1C[C@H](F)C[C@H]1C(=O)Nc1cccc(-c2ccccc2Cl)c1F` [Compound 113, 1-(2-((2S,4R)-2-((2′-Chloro-2-fluoro-[1,1′-biphenyl]-3-yl)carbamoyl)-4-fluoropyrrolidin-1-yl)-2-oxoethyl)-5-methyl-1H-thieno[3,2-c]pyrazole-3-carboxamide], the pIC50 is greater than 6.00. Regarding `CC(=O)c1cn(CC(=O)N2C[C@H](F)C[C@H]2C(=O)Nc2cccc(-c3ccccc3Cl)c2F)c2c(-c3cn[nH]c3)cccc12` [Compound 114, (2S,4R)-1-(2-(3-acetyl-7-(1H-pyrazol-4-yl)-1H-indol-1-yl)acetyl)-N-(2′-chloro-2-fluorobiphenyl-3-yl)-4-fluoropyrrolidine-2-carboxamide], the pIC50 is greater than 6.00. For the compound `Cc1cc2c(s1)c(C(N)=O)nn2CC(=O)N1C[C@H](F)C[C@H]1C(=O)Nc1cccc(Br)n1` [Compound 118, 1-(2-((2S,4R)-2-(6-bromopyridin-2-ylcarbamoyl)-4-fluoropyrrolidin-1-yl)-2-oxoethyl)-5-methyl-1H-thieno[3,2-c]pyrazole-3-carboxamide], the pIC50 is greater than 6.00. Regarding `CC(=O)c1cn(CC(=O)N2C[C@H](F)C[C@H]2C(=O)Nc2cccc(Br)n2)c2ccc(C3(NC(=O)c4cncnc4)CC3)cc12` [Compound 126, N-(1-(3-acetyl-1-(2-((2S,4R)-2-(6-bromopyridin-2-ylcarbamoyl)-4-fluoropyrrolidin-1-yl)-2-oxoethyl)-1H-indol-5-yl)cyclopropyl) pyrimidine-5-carboxamide], the pIC50 was greater than 6.00.

The same assay, now with this note: Table 2; Human Factor D 80 nM, substrate Z-L-Lys-SBzl; read-out: IC50.
In the case of `COC(=O)c1cc2c(s1)c(C(N)=O)nn2CC(=O)N1C[C@H](F)C[C@H]1C(=O)Nc1cccc(-c2ccccc2Cl)c1F` [Compound 129, methyl 3-carbamoyl-1-(2-((2S,4R)-2-(2′-chloro-2-fluorobiphenyl-3-ylcarbamoyl)-4-fluoropyrrolidin-1-yl)-2-oxoethyl)-1H-thieno[3,2-c]pyrazole-5-carboxylate], the pIC50 was greater than 6.00. Consider `NC(=O)c1nn(CC(=O)N2C[C@H](F)C[C@H]2C(=O)Nc2cccc(-c3cc(F)c(F)cc3Cl)c2F)c2ccc(Br)cc12` [Compound 130, 5-bromo-1-(2-((2S,4R)-2-(2′-chloro-2,4′,5′-trifluorobiphenyl-3-ylcarbamoyl)-4-fluoropyrrolidin-1-yl)-2-oxoethyl)-1H-indazole-3-carboxamide], for which the pIC50 was greater than 6.00. Consider `CC(=O)c1nn(CC(=O)N2C[C@H](F)C[C@H]2C(=O)Nc2cccc(-c3ccccc3Cl)c2F)c2cc(C)sc12` [Compound 131, (2S,4R)-1-(2-(3-acetyl-5-methyl-1H-thieno[3,2-c]pyrazol-1-yl)acetyl)-N-(2′-chloro-2-fluorobiphenyl-3-yl)-4-fluoropyrrolidine-2-carboxamide], for which the pIC50 was greater than 6.00.

Consider `NC(=O)c1nn(CC(=O)N2C[C@H](F)C[C@H]2C(=O)Nc2cccc(-c3ccccc3Cl)c2F)c2cc(C(=O)O)sc12` [Compound 132, 3-carbamoyl-1-(2-((2S,4R)-2-(2′-chloro-2-fluorobiphenyl-3-ylcarbamoyl)-4-fluoropyrrolidin-1-yl)-2-oxoethyl)-1H-thieno[3,2-c]pyrazole-5-carboxylic acid], for which the pIC50 is greater than 6.00. Regarding `O=C(NCc1cccc(Cl)c1F)[C@@H]1C[C@@H](F)CN1C(=O)Cn1cc(-c2cnco2)c2ccccc21` [Compound 133, (2S,4R)-N-(3-chloro-2-fluorobenzyl)-4-fluoro-1-(2-(3-(oxazol-5-yl)-1H-indol-1-yl)acetyl) pyrrolidine-2-carboxamide], the pIC50 is greater than 6.00. Same read-out and setting: for `NC(=O)c1nn(CC(=O)N2CC(=O)C[C@H]2C(=O)Nc2cccc(-c3ccccc3Cl)c2F)c2ccccc12` [Compound 134, (S)-1-(2-(2-(2′-chloro-2-fluorobiphenyl-3-ylcarbamoyl)-4-oxopyrrolidin-1-yl)-2-oxoethyl)-1H-indazole-3-carboxamide] the value was greater than 6.00; for `NC(=O)c1nn(CC(=O)N2C(=O)CC[C@H]2C(=O)Nc2cccc(-c3ccccc3Cl)c2F)c2ccccc12` [Compound 135, (S)-1-(2-(2-((2′-Chloro-2-fluoro-[1,1′-biphenyl]-3-yl)carbamoyl)-5-oxopyrrolidin-1-yl)-2-oxoethyl)-1H-indazole-3-carboxamide], greater than 6.00. Same read-out and setting: for `NC(=O)c1nn(CC(=O)N2C[C@H](F)C[C@H]2C(=O)Nc2nc3cccc(Cl)c3[nH]2)c2ccccc12` [Compound 136, 1-(2-((2S,4R)-2-(7-chloro-1H-benzo[d]imidazol-2-ylcarbamoyl)-4-fluoropyrrolidin-1-yl)-2-oxoethyl)-1H-indazole-3-carboxamide] the value was greater than 6.00; for `NC(=O)c1nn(CC(=O)N2C[C@H](F)C[C@H]2C(=O)Nc2cccc(-c3ccccc3Cl)c2F)c2c(Cl)c(Cl)sc12` [Compound 137, 5,6-Dichloro-1-(2-((2S,4R)-2-((2′-chloro-2-fluoro-[1,1′-biphenyl]-3-yl)carbamoyl)-4-fluoropyrrolidin-1-yl)-2-oxoethyl)-1H-thieno[3,2-c]pyrazole-3-carboxamide], greater than 6.00; for `CC(=O)c1nn(CC(=O)N2C[C@H](F)C[C@H]2C(=O)Nc2cccc(-c3ccccc3Cl)c2F)c2cc(C(=O)O)sc12` [Compound 138], greater than 6.00. The same measure, in the same setting: the result for `NC(=O)c1nn(CC(=O)N2C[C@H](F)C[C@H]2C(=O)Nc2cccc(-c3ccccc3Cl)c2F)c2cc(Cl)sc12` [Compound 139, 5-Chloro-1-(2-((2S,4R)-2-((2′-chloro-2-fluoro-[1,1′-biphenyl]-3-yl)carbamoyl)-4-fluoropyrrolidin-1-yl)-2-oxoethyl)-1H-thieno[3,2-c]pyrazole-3-carboxamide] reads greater than 6.00; that for `NCC(=O)c1ccc(Cl)c(-c2cccc(NC(=O)[C@@H]3C[C@@H](F)CN3C(=O)Cn3nc(C(N)=O)c4ccccc43)c2F)c1` [Compound 140, 1-(2-((2S,4R)-2-((2′-Chloro-2-fluoro-5′-glycyl-[1,1′-biphenyl]-3-yl)carbamoyl)-4-fluoropyrrolidin-1-yl)-2-oxoethyl)-1H-indazole-3-carboxamide hydrochloride], greater than 6.00; that for `NC(=O)c1nn(CC(=O)N2C[C@H](F)C[C@H]2C(=O)Nc2cccc(-c3cc(C(=O)CO)ccc3Cl)c2F)c2ccccc12` [Compound 141, 1-(2-((2S,4R)-2-(2′-chloro-2-fluoro-5′-(2-hydroxyacetyl)bi-phenyl-3-ylcarbamoyl)-4-fluoropyrrolidin-1-yl)-2-oxoethyl)-1H-indazole-3-carboxamide], greater than 6.00.

Turning to `O=C(Nc1cccc(-c2ccccc2Cl)c1F)[C@@H]1C[C@@H](F)CN1C(=O)Cn1c(=O)[nH]c2ccccc21` [Compound 142, (2S,4R)-N-(2′-chloro-2-fluorobiphenyl-3-yl)-4-fluoro-1-(2-(2-oxo-2,3-dihydro-1H-benzo[d]imidazol-1-yl)acetyl) pyrrolidine-2-carboxamide], the pIC50 was greater than 6.00.
